Results taken from PMC9295122, “Sialic Acid Derivatives Inhibit SiaT Transporters and Delay Bacterial Growth” (ACS Chemical Biology, 2022).
Blank lines part the entries; values can stand above or below the molecule they belong to.

Legend:
[1] = biological target: T1, PmSiaT (Proteus mirabilis, UniProt B4EZY7); test: nanoDSF thermal shift assay, PmSiaT; type: binding; conditions: for Average 1 / Average 2 / Average 3 / Replicate 1 / Replicate 2 / Replicate 3: PmSiaT Tm; for Average 1: average of experiment 1; for Average 2: average of experiment 2; for Average 3: average of experiment 3; for Replicate 1: experiment 1, second capillary; for Replicate 1 / Replicate 2 / Replicate 3 / Tm 1 / Tm2 / Tm 3 / Tm average overall: 1.25 mM; for Replicate 2: experiment 2, second capillary; for Replicate 3: experiment 3, second capillary; for Tm 1 / Tm2 / Tm 3 / Tm average overall: PmSiaT; for Tm 1: experiment 1, first capillary; for Tm2: experiment 2, first capillary; for Tm 3: experiment 3, first capillary; for Tm average overall: three experiments
T1 construct: made in house
T1 sequence (B4EZY7 1-496): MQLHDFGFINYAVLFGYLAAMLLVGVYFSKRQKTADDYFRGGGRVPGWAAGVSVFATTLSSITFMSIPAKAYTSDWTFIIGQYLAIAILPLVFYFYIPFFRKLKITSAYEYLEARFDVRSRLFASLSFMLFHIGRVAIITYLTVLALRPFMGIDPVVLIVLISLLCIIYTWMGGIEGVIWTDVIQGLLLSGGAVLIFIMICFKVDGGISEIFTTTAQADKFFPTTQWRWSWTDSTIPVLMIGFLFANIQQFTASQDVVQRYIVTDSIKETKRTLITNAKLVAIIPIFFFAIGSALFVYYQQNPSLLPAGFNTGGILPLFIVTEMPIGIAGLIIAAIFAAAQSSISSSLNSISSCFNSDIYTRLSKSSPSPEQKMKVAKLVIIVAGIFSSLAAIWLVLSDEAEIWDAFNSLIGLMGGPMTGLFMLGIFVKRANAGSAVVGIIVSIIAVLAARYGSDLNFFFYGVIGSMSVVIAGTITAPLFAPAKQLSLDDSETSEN
Procedure: (§1) Nano-differential scanning fluorimetry (nanoDSF) is a high-throughput method that relies on the thermal stabilization of the folded protein state by a bound ligand.[33]
(§2) The melting points of protein–inhibitor complexes were measured on a Prometheus NT.48 instrument from NanoTemper Technologies. Solutions containing the protein at 2 μM in phosphate buffered saline with 0.0174% (w/v) dodecylmaltoside (DDM) and the ligand at 1.25 mM were loaded onto standard capillaries by NanoTemper. The temperature was increased from 25 to 95 °C at a ramp rate of 1 °C/min. The fluorescence was recorded at 330 and 350 nm and as a ratio of the two wavelengths.
(§3) The intensity ratio and its first derivative were calculated using manufacturer’s software (PR.ThermControl, version 2.1.2).
(§4) The melting temperatures have been measured in 3 separate experiments. In each experiment, two capillaries were included per compound, having therefore 2 technical replicates per experiment. In the table all data is presented. Tm1 and Replicate 1 represent the two replicates of the first experiment. Average 1 is the average between Tm 1 and Replicate 1. ΔTm 1 is the thermal shift when compared to the Tm of Neu5Ac. This is calculated from Average 1. The ΔTm presented in the article are the ΔTm average overall, which represent the overall average of the averages from the three experiments. The standard deviation (SD) is calculated from the […]

[2] = biological target: SaSiaT (Staphylococcus aureus, UniProt A0A0H2XJ46); test: nanoDSF thermal shift assay, SaSiaT; type: binding; conditions: for Average 1 / Average 2 / Average 3 / Replicate 1 / Replicate 2 / Replicate 3: SaSiaT Tm; for Average 1: average of experiment 1; for Average 2: average of experiment 2; for Average 3: average of experiment 3; for Replicate 1: experiment 1, second capillary; for Replicate 1 / Replicate 2 / Replicate 3 / Tm2 / Tm 3 / Overall average (Tm) / Tm 1: 1.25 mM; for Replicate 2: experiment 2, second capillary; for Replicate 3: experiment 3, second capillary; for Tm2 / Tm 3 / Overall average (Tm) / Tm 1: SaSiaT; for Tm2: experiment 2, first capillary; for Tm 3: experiment 3, first capillary; for Overall average (Tm): three experiments; for Tm 1: experiment 1, first capillary
Procedure: as §1, §2, §3, §4

[3] = substrate: CC(=O)N[C@H]1[C@H]([C@H](O)[C@H](O)CO)OC(O)(C(=O)O)C[C@@H]1O; test: cells, lysate or membranes named; conditions: other: Neu5Ac transport by SaSiaT in proteoliposomes; pH 7.0; 25.0 °C
Procedure: A kinetic analysis was performed by measuring the concentration-dependent uptake of [^3H]Neu5Ac in the presence of two different concentrations of the inhibitors 3f (Figure 5a,c) or 3e (Figure 5b,d).
(a–d) Data were plotted according to Lineweaver–Burk as a reciprocal transport rate vs reciprocal Neu5Ac concentration. The transport rate was measured, in 5 min, by adding [^3H] Neu5Ac at the indicated concentrations to proteoliposomes containing 20 mM K^+-gluconate in the presence of valinomycin as described in the Supporting Information. [(A,B) P. mirabilis SiaT]; (A) compound 3f 0.25 μM (●) or 0.75 μM (□) was added in comparison to samples without inhibitor (○). […]
For uptake experiments, 600 μL of proteoliposomes were loaded onto a Sephadex G-75 column (0.7 cm diameter × 15 cm height), pre-equilibrated with 20 mM Hepes Tris pH 7.0 with 40 mM sucrose to balance the internal osmolarity. […] For kinetic measurement, the initial transport rate was measured by stopping the reaction after 5 min, that is, within the initial linear range of [^3H]-Neu5Ac uptake into the proteoliposomes previously described. […] In both uptake and efflux experiments, the transport assay was terminated by loading each proteoliposome sample (100 μL) on a Sephadex G-75 column (0.6 cm diameter × 8 cm height) to remove the external radioactivity. […]

Average 1 [1]: 46.0 °C
Average 2 [1]: 46.1 °C
Average 3 [1]: 46.0 °C
Replicate 1 [1]: 45.9 °C
Replicate 2 [1]: 46.2 °C
Replicate 3 [1]: 46.1 °C
Tm 1 [1]: 46.0 °C
Tm2 [1]: 46.0 °C
Tm 3 [1]: 45.9 °C
Tm average overall [1]: 46.0 °C
Average 1 [2]: 48.7 °C
Average 2 [2]: 47.4 °C
Average 3 [2]: 48.5 °C
Replicate 1 [2]: 42.7 °C
Replicate 2 [2]: 47.4 °C
Replicate 3 [2]: 48.3 °C
Tm2 [2]: 47.4 °C
Tm 3 [2]: 48.6 °C
Overall average (Tm) [2]: 48.2 °C
Molecule: CC(=O)NC1C(O)CC(O)(C(=O)O)OC1C(O)C(O)CN=[N+]=[N-] (centres unmarked) [Compound 8g]

Molecule: CC(=O)N[C@H]1[C@H]([C@H](O)[C@H](O)CO)OC(C(=O)O)=C[C@@H]1O [Compound 9, 2-deoxy-2,3-didehydro-N-acetylneuraminic acid, reference compound]
Average 1 [1]: 45.9 °C
Average 2 [1]: 46.2 °C
Average 3 [1]: 46.2 °C
Replicate 1 [1]: 45.7 °C
Replicate 2 [1]: 46.1 °C
Replicate 3 [1]: 46.3 °C
Tm 1 [1]: 46.1 °C
Tm2 [1]: 46.3 °C
Tm 3 [1]: 46.2 °C
Tm average overall [1]: 46.1 °C
Average 1 [2]: 45.1 °C
Average 2 [2]: 45.8 °C
Average 3 [2]: 45.9 °C
Replicate 1 [2]: 45.2 °C
Replicate 2 [2]: 46.4 °C
Replicate 3 [2]: 46.4 °C
Tm 1 [2]: 45.0 °C
Tm2 [2]: 45.2 °C
Tm 3 [2]: 45.4 °C
Overall average (Tm) [2]: 45.6 °C

Molecule: O=C(CO)N[C@H]1[C@H]([C@H](O)[C@H](O)CO)OC(O)(C(=O)O)C[C@@H]1O (some centres unmarked) [Neu5Gc, 5-N-glycolyl neuraminic acid, reference compound]
Average 1 [1]: 48.0 °C
Average 2 [1]: 48.1 °C
Average 3 [1]: 48.0 °C
Replicate 1 [1]: 48.0 °C
Replicate 2 [1]: 48.0 °C
Replicate 3 [1]: 48.0 °C
Tm 1 [1]: 47.9 °C
Tm2 [1]: 48.1 °C
Tm 3 [1]: 48.0 °C
Tm average overall [1]: 48.0 °C
ΔTm at 1250 µM ([1]; read-out: ΔTm average overall): -1.2 °C
Average 1 [2]: 53.3 °C
Average 2 [2]: 53.3 °C
Average 3 [2]: 53.6 °C
Replicate 1 [2]: 53.3 °C
Replicate 2 [2]: 53.4 °C
Replicate 3 [2]: 53.6 °C
Tm 1 [2]: 53.3 °C
Tm2 [2]: 53.2 °C
Tm 3 [2]: 53.6 °C
Overall average (Tm) [2]: 53.4 °C

B1: SiaT from S. aureus (Staphylococcus aureus subsp. aureus USA300) (protein)
chain: MKEVGFGTLNWVAVIIYLLAMLFIGVYFTKRASQSTNSFFTASGRLPSWVVGFSIYATTLSAITFMSTPEKAFLTDWSYIAGNIAIVAIIPLLIYFYVPFFKKLKVTSAYEYLEARFGPSIRVIGSLLFVVYHLGRVAIVIYLPTLAITSVSDMNPYIVASLVGLLCILYTFLGGFEGVVWSDFIQGVILLGGALVIIILGVVNIKGGFGTVFADAIEHKKLISADNWKLNTAAAAIPIIFLGNIFNNLYQYTASQDVVQRYQASDSLKETNKSLWTNGILALISAPLFYGMGTMLYSFYTHEAVLPKGFNTSSVVPYFILTEMPPFVAGLLIAAIFAAAQSTISSSLNSISACISIDIKQRFFGKGSERHEVNFARFIIIIAGIFGFGMSLYLIASNSNDLWDLFLFVTGLFGVPLAGVFAVGIFTKRTNTFGVICGLILGIIFAYVYNGVGKGNSPFYVSTISFTVAFVFAYILSFIVPSKHKKDITGLTIFEKDKPSTYISKTATKK
Km [3]: 12.2 ± 2.2 µM
Vmax [3]: 51 ± 9 nmol/mg protein/min
